Experimental data from patent publication EP1189688B1, “W/O TYPE EMULSIONS WITH A HIGH WATER CONTENT CONTAINING MEDIUM POLAR LIPIDS” (Beiersdorf AG, priority 1999, dated 2000).

Experiment: Interfacial tension of the lipid against water (measure of polarity)
Format: physicochemical
Conditions: lower value = more polar oil
Excerpt: Öle und Fette unterscheiden sich unter anderem in ihrer Polarität, welche schwierig zu definieren ist. Es wurde bereits vorgeschlagen, die Grenzflächenspannung gegenüber Wasser als Maß für den Polaritätsindex eines Öls bzw. einer Ölphase anzunehmen. Dabei gilt, daß die Polarität der betreffenden Ölphase umso größer ist, je niedriger die Grenzflächenspannung zwischen dieser Ölphase und Wasser ist. Erfindungsgemäß wird die Grenzflächenspannung als ein mögliches Maß für die Polarität einer gegebenen Ölkomponente angesehen.
Die Grenzflächenspannung ist diejenige Kraft, die an einer gedachten, in der Grenzfläche zwischen zwei Phasen befindlichen Linie der Länge von einem Meter wirkt. Die physikalische Einheit für diese Grenzflächenspannung errechnet sich klassisch nach der Beziehung Kraft/Länge und wird gewöhnlich in mN/m (Millinewton geteilt durch Meter) wiedergegeben. Sie hat positives Vorzeichen, wenn sie das Bestreben hat, die Grenzfläche zu verkleinern. Im umgekehrten Falle hat sie negatives Vorzeichen.
Die nachfolgende Tabelle 1 führt mittelpolare Lipide auf, die die erfindungsgemäß sind. Die betreffenden Grenzflächenspannungen gegen Wasser sind in der letzten Spalte angegeben. Es ist jedoch auch vorteilhaft, Gemische aus höher- und niederpolaren und dergleichen zu verwenden, sofern gewährleistet ist, daß die Gesamtpolarität der Ölphase im beanspruchten Bereich liegt. Tabelle 1

Row | Compound | Grenzflächenspannungen gegen Wasser
1 | CCCCCCCCCCCCCCCCCC(=O)OCCCCCCCC [Cetiol® 868, Octyl Stearate] | 28,4 mN/m
2 | CCCCCCCCCCC(CO)CCCCCCCC (centres unmarked) [Eutanol® G, Octyldodecanol] | 24,8 mN/m
3 | CCCCCCCCC(CO)CCCCCC (centres unmarked) [Isofol® 16, Hexyl Decanol] | 24,3 mN/m
4 | CCCCCCCCCCCCCCCCCC(=O)OC(C)C [Isopropylstearat, Isopropyl Stearate] | 21,9 mN/m

Results, then the compound that gave them:

Row | Grenzflächenspannungen gegen Wasser | Compound
5 | 22,1 mN/m | CCCCCCCCCCCCCC(=O)OCC(CCCCCCCC)CCCCCCCCCC (centres unmarked) [MOD, Octyldodeceyl Myristate]
6 | 28,7 mN/m | CCCCCCCCCCCCCCCCCCOC(=O)CCCCCC [Tegosoft® SH, Stearyl Heptanoate]
7 | 20,2 mN/m | CCCCCCCC(=O)OCC(COC(=O)CCCCCCC)OC(=O)CCCCCCC [Trivent® OCG, Tricaprylin]
8 | 29,7 mN/m | Octyl lsostearate [Prisorine® 2036]
